In brackets after ≈: the same amount, converted by molar mass. Counter-ions that a name gives are not always drawn.
How the values were obtained:
Type in all cases: cell-based
[1] = tested on: K. pneumoniae NCTC-9632; assay: antimicrobial activity in vitro, MIC by agar plate dilution method, K. pneumoniae NCTC-9632; details: Klebsiella pneumoniae, NCTC9632, inoculum 1×10^6 cells/ml, read-out: minimal inhibitory concentration (MIC)
Method: (§1) In order to investigate the in vitro activity of the under-mentioned compounds against various bacteria, the minimal inhibitory concentration (MIC) values were determined by the agar plate dilution method [see Chemotherapy, 22, 1126-1128 (1974)].
(§2) Each test inoculum was adjusted to 1×10^6 cells/ml (O.D., 600 mμ: 0.07-0.16).

[2] = tested on: P. mirabilis 1287; assay: antimicrobial activity in vitro, MIC by agar plate dilution method, P. mirabilis 1287; details: Proteus mirabilis, inoculum 1×10^6 cells/ml, read-out: minimal inhibitory concentration (MIC)
Method: as §1, §2

[3] = tested on: E. coli NIHJ; assay: antimicrobial activity in vitro, MIC by agar plate dilution method, E. coli NIHJ; details: Escherichia coli, inoculum 1×10^6 cells/ml, read-out: minimal inhibitory concentration (MIC)
Method: as §1, §2

[4] = tested on: E. coli No. 29; assay: antimicrobial activity in vitro, MIC by agar plate dilution method, E. coli No. 29; details: Escherichia coli, inoculum 1×10^6 cells/ml, read-out: minimal inhibitory concentration (MIC)
Method: as §1, §2

[5] = tested on: S. marcescens IFO-12648; assay: antimicrobial activity in vitro, MIC by agar plate dilution method, S. marcescens IFO-12648; details: Serratia marcescens, IFO12648, inoculum 1×10^6 cells/ml, read-out: minimal inhibitory concentration (MIC)
Method: as §1, §2

[6] = tested on: S. aureus FDA-209-p; assay: antimicrobial activity in vitro, MIC by agar plate dilution method, S. aureus FDA-209-p; details: Staphylococcus aureus, FDA209, inoculum 1×10^6 cells/ml, read-out: minimal inhibitory concentration (MIC)
Method: as §1, §2

[7] = tested on: P. aeruginosa NCTC-10490; assay: antimicrobial activity in vitro, MIC by agar plate dilution method, P. aeruginosa NCTC-10490; details: Pseudomonas aeruginosa, NCTC10490, inoculum 1×10^6 cells/ml, read-out: minimal inhibitory concentration (MIC)
Method: as §1, §2

[8] = tested on: M. morganii ATCC-25830; assay: antimicrobial activity in vitro, MIC by agar plate dilution method, M. morganii ATCC-25830; details: Morganella morganii, ATCC25830, inoculum 1×10^6 cells/ml, read-out: minimal inhibitory concentration (MIC)
Method: as §1, §2

Compound	MIC [1] [µg/mL]	MIC [2] [µg/mL]	MIC [3] [µg/mL]	MIC [4] [µg/mL]	MIC [5] [µg/mL]	MIC [6] [µg/mL]	MIC [7] [µg/mL]	MIC [8] [µg/mL]
CO/N=C(\C(=O)N[C@@H]1C(=O)N2C(C(=O)[O-])=C(CSc3cc[n+](CC(=O)c4ccccc4)cc3)OC[C@H]12)c1csc(N)n1 [No. 1, (6S,7S)-7-[2-(2-Aminothiazol-4-yl)-2-methoxyiminoacetamido]-3-[(1-benzoylmethyl-4-pyridinio)thiomethyl]-Δ^3 -O-2-isocephem-4-carboxylate (syn-isomer)]	0.05 (≈ 0.0821 µM)	0.05 (≈ 0.0821 µM)	0.05 (≈ 0.0821 µM)	≤ 0.025	0.1 (≈ 0.164 µM)	0.05 (≈ 0.0821 µM)	1.56 (≈ 2.56 µM)	0.05 (≈ 0.0821 µM)
CO/N=C(\C(=O)N[C@@H]1C(=O)N2C(C(=O)[O-])=C(CSc3cc[n+](CC(=O)N4CCCC4)cc3)OC[C@H]12)c1csc(N)n1 [No. 2, (6S,7S)-7-[2-(2-Aminothiazol-4-yl)-2-methoxyiminoacetamido]-3-[[1-(1-pyrrolidinylcarbonylmethyl)-4pyridinio]thiomethyl]-Δ^3 -O-2-isocephem-4-carboxylate (syn-isomer)]	≤ 0.025	≤ 0.025	≤ 0.025	≤ 0.025	0.1 (≈ 0.166 µM)	0.2 (≈ 0.332 µM)	1.56 (≈ 2.59 µM)	≤ 0.025
Nc1nc(/C(=N/OC2CCCC2)C(=O)N[C@@H]2C(=O)N3C(C(=O)[O-])=C(CSc4cc[n+](CC(=O)N5CCCC5)cc4)OC[C@H]23)cs1 [No. 3, (6S,7S)-7-[2-(2-Aminothiazol-4-yl)-2-cyclopentyloxyiminoacetamido]-3-[[1-(1-pyrrolidinylcarbonylmethyl)-4-pyridinio]thiomethyl]-Δ^3 -O-2-isocephem-4-carboxylic acid sulfate (syn-isomer)]	0.39	0.2	0.2	0.1	0.78	0.1	0.78	0.05
CN(C)C(=O)C[n+]1ccc(SCC2=C(C(=O)[O-])N3C(=O)[C@@H](NC(=O)/C(=N\OC4CCCC4)c4csc(N)n4)[C@H]3CO2)cc1 [No. 4, (6S,7S)-7-[2-(2-Aminothiazol-4-yl)-2-cyclopentyloxyiminoacetamido]-3-[(1-N,N-dimethylcarbamoylmethyl4-pyridinio)thiomethyl]-Δ^3 -O-2-isocephem-4-carboxylic acid sulfate (syn-isomer)]	0.39	0.2	0.2	0.1	1.56	0.1	1.56	0.05
C[n+]1ccc(SCC2=C(C(=O)[O-])N3C(=O)[C@@H](NC(=O)/C(=N\OCC(N)=O)c4csc(N)n4)[C@H]3CO2)cc1 [No. 5, (6S,7S)-7-[2-(2-Aminothiazol-4-yl)-2-carbamoylmethoxyiminoacetamido]-3-[(1-methyl-4-pyridinio)thiomethyl]-Δ^3 -O-2-isocephem-4-carboxylate (syn-isomer)]	≤ 0.025	≤ 0.025	≤ 0.025	≤ 0.025	0.1 (≈ 0.183 µM)	0.2 (≈ 0.365 µM)	12.5 (≈ 22.8 µM)	≤ 0.025
CO/N=C(\C(=O)N[C@@H]1C(=O)N2C(C(=O)[O-])=C(CSc3cc[n+](CC(=O)N(C)C)cc3)OC[C@H]12)c1csc(N)n1 [No. 6, (6S,7S)-7-[2-(2-Aminothiazol-4-yl)-2-methoxyiminoacetamido]-3-[(1-N,N-dimethylcarbamoylmethyl-4-pyridinio)thiomethyl]-Δ^3 -O-2-isocephem-4-carboxylic acid sulfate (syn-isomer)]	≤ 0.025	≤ 0.025	≤ 0.025	≤ 0.025	0.2	0.2	3.13	≤ 0.025
CCC(=O)C[n+]1ccc(SCC2=C(C(=O)[O-])N3C(=O)[C@@H](NC(=O)/C(=N\OC4CCCC4)c4csc(N)n4)[C@H]3CO2)cc1 [No. 7, (6S,7S)-7-[2-(2-Aminothiazol-4-yl)-2-cyclopentyloxyiminoacetamido]-3-[(1-propanoylmethyl-4-pyridinio)thiomethyl] -Δ^3 -O-2-isocephem-4-carboxylic acid sulfate (syn-isomer)]	0.39	0.1	0.2	0.1	0.78	0.1	0.78	0.05
Nc1nc(/C(=N/OC2CCCC2)C(=O)N[C@@H]2C(=O)N3C(C(=O)[O-])=C(CSc4cc[n+](CC(=O)N5CCNCC5)cc4)OC[C@H]23)cs1 [No. 8, (6S,7S)-7-[2-(2-Aminothiazol-4-yl)-2-cyclopentyloxyiminoacetamido]-3-[[1-(1-piperazinylcarbonylmethyl)-4-pyridinio]thiomethyl]-Δ^3 -O-2-isocephem-4-carboxylate (syn-isomer)]	0.2 (≈ 0.298 µM)	0.39 (≈ 0.581 µM)	0.2 (≈ 0.298 µM)	0.1 (≈ 0.149 µM)	0.78 (≈ 1.16 µM)	0.2 (≈ 0.298 µM)	0.78 (≈ 1.16 µM)	0.1 (≈ 0.149 µM)
Nc1nc(/C(=N/OC2CCCC2)C(=O)N[C@@H]2C(=O)N3C(C(=O)[O-])=C(CSc4cc[n+](CC(=O)NO)cc4)OC[C@H]23)cs1 [No. 9, (6S,7S)-7-[2-(2-Aminothiazol-4-yl)-2-cyclopentyloxyiminoacetamido]-3-[(1-hydroxyaminocarbonylmethyl-4-pyridinio)thiomethyl]-Δ^3 -O-2-isocephem-4-carboxylate (syn-isomer)]	0.39 (≈ 0.631 µM)	0.2 (≈ 0.324 µM)	0.2 (≈ 0.324 µM)	0.1 (≈ 0.162 µM)	1.56 (≈ 2.53 µM)	0.39 (≈ 0.631 µM)	3.13 (≈ 5.07 µM)	0.05 (≈ 0.0809 µM)
CO/N=C(\C(=O)N[C@@H]1C(=O)N2C(C(=O)[O-])=C(CSc3cc[n+](CC(=O)N4CCOCC4)cc3)OC[C@H]12)c1csc(N)n1 [No. 10, (6S,7S)-7-[2-(2-Aminothiazol-4-yl)-2-methoxyiminoacetamido]-3-[(1-morpholinocarbonylmethyl-4pyridinio)thiomethyl]-Δ^3 -O-2-isocephem-4-carboxylate (syn-isomer)]	≤ 0.025	≤ 0.025	≤ 0.025	≤ 0.025	0.1 (≈ 0.162 µM)	0.2 (≈ 0.324 µM)	6.25 (≈ 10.1 µM)	≤ 0.025
Nc1nc(/C(=N/OC2CCCC2)C(=O)N[C@@H]2C(=O)N3C(C(=O)[O-])=C(CSc4cc[n+](CCl)cc4)OC[C@H]23)cs1 [No. 11, (6S,7S)-7-[2-(2-Aminothiazol-4-yl)-2-cyclopentyloxyiminoacetamido]-3-[(1-chloromethyl-4-pyridinio)thiomethyl]-Δ^3 -O-2-isocephem-4-carboxylate (syn-isomer)]	0.39 (≈ 0.658 µM)	0.2 (≈ 0.337 µM)	0.2 (≈ 0.337 µM)	0.1 (≈ 0.169 µM)	0.78 (≈ 1.32 µM)	0.1 (≈ 0.169 µM)	1.56 (≈ 2.63 µM)	0.05 (≈ 0.0843 µM)
Nc1nc(/C(=N/OC2CCCC2)C(=O)N[C@@H]2C(=O)N3C(C(=O)[O-])=C(CSc4cc[n+](CC5CC5)cc4)OC[C@H]23)cs1 [No. 12, (6S,7S)-7-[2-(2-Aminothiazol-4-yl)-2-cyclopentyloxyiminoacetamido]-3-[(1-cyclopropylmethyl-4-pyridinio)thiomethyl]-Δ^3 -O-2- -isocephem-4-carboxylic acid ditrifluoroacetate (syn-isomer)]	0.2 (≈ 0.334 µM)	0.1 (≈ 0.167 µM)	0.1 (≈ 0.167 µM)	0.05 (≈ 0.0835 µM)	0.78 (≈ 1.3 µM)	0.05 (≈ 0.0835 µM)	0.39 (≈ 0.651 µM)	0.05 (≈ 0.0835 µM)
Nc1nc(/C(=N/OC2CCCC2)C(=O)N[C@@H]2C(=O)N3C(C(=O)[O-])=C(CSc4cc[n+](CCF)cc4)OC[C@H]23)cs1 [No. 13, (6S,7S)-7-[2-(2-Aminothiazol-4-yl)-2-cyclopentyloxyiminoacetamido]-3-[[1-(2-fluoroethyl)-4-pyridinio]thiomethyl]-Δ^3 -O-2-isocephem-4-carboxylate (syn-isomer)]	0.39 (≈ 0.66 µM)	0.2 (≈ 0.339 µM)	0.2 (≈ 0.339 µM)	0.1 (≈ 0.169 µM)	1.56 (≈ 2.64 µM)	0.1 (≈ 0.169 µM)	0.78 (≈ 1.32 µM)	0.05 (≈ 0.0847 µM)
CO/N=C(\C(=O)N[C@@H]1C(=O)N2C(C(=O)[O-])=C(CSc3cc[n+](CCF)cc3)OC[C@H]12)c1csc(N)n1 [No. 14, (6S,7S)-7-[2-(2-Aminothiazol-4-yl)-2-methoxyiminoacetamido]-3-[[1-(2-fluoroethyl)-4-pyridinio]thiomethyl]-Δ^3 -O-2-isocephem-4-carboxylate (syn-isomer)]	≤ 0.025	≤ 0.025	≤ 0.025	≤ 0.025	0.1 (≈ 0.186 µM)	0.2 (≈ 0.373 µM)	1.56 (≈ 2.91 µM)	≤ 0.025

— US4898859A, “2-Oxa-isocephem compounds and compositions containing same” (Otsuka Pharmaceutical Co., Ltd., priority 1987, dated 1990)
